# Measurements from PubChem BioAssay (NCI).
# “And” between values parts separate entries of the source, which are not always exact repeats. Equal entries are not always repeated.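 Cultured in 96-well plates, cells were exposed to test compound for 48 hours across five concentrations. Abbreviation: GI50, concentration required for 50% inhibition of growth. Definition used: TGI = concentration required for complete inhibition of growth.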
# Tests used:
# Test in all cases: NCI tumour cell line growth inhibition, 48 h
# DMS 114 small cell lung = test system: DMS 114 small cell lung
# HOP-18 NSCLC = test system: HOP-18 NSCLC
# KM20L2 colon = test system: KM20L2 colon
# LXFL 529 NSCLC = test system: LXFL 529 NSCLC
# M19-MEL melanoma = test system: M19-MEL melanoma
# RXF-631 renal = test system: RXF-631 renal
# SNB-78 CNS = test system: SNB-78 CNS
# MDA-N = test system: MDA-N
# XF 498 CNS = test system: XF 498 CNS
# P388 leukemia = test system: P388 leukemia
# SN12K1 renal = test system: SN12K1 renal
Structure (SMILES),TGI (DMS 114 small cell lung) [µM],TGI (HOP-18 NSCLC),TGI (KM20L2 colon) [µM],TGI (LXFL 529 NSCLC) [µM],TGI (M19-MEL melanoma) [µM],TGI (RXF-631 renal) [µM],TGI (SNB-78 CNS),TGI (MDA-N),TGI (XF 498 CNS),other results
CCOC(=O)[CH-]C(=O)C12CC3CC(CC(C3)C1)C2.CCOC(=O)[CH-]C(=O)C12CC3CC(CC(C3)C1)C2.CC[O-].CC[O-].[Ti+4],> 100,> 100 µM,> 100,> 100,> 100,> 100,> 100 µM,–,–,GI50 (DMS 114 small cell lung): > 100 µM; GI50 (HOP-18 NSCLC): > 100 µM; GI50 (KM20L2 colon): > 100 µM; GI50 (LXFL 529 NSCLC): > 100 µM; GI50 (M19-MEL melanoma): > 100 µM; GI50 (RXF-631 renal): > 100 µM; GI50 (SNB-78 CNS): > 100 µM
NCCCNCCS,–,> 100 µM,> 100,> 100,–,> 100,> 100 µM,> 100 µM,> 100 µM,–
COc1ccc(NC(=O)CC/C(CC(=O)c2ccco2)=N/NC(=O)C(N)=O)cc1,> 100,> 100 µM,> 100,> 100,> 100,–,–,–,> 100 µM,–
C=C(C)C1CC2(C)C(C)CC(O)CC2C(OC(=O)C=C(C)C)C1O (stereo not drawn),–,–,–,–,–,–,–,> 100 µM,–,–
Cc1ccc(S(=O)(=O)N/N=C2\CCCCC23CCC(=O)NC3)cc1 (stereo not drawn),> 100,> 100 µM,> 100,> 100,> 100,> 100,> 100 µM,–,–,–
COc1ccc([C@@]2(O)c3c(ccc(O)c3OC)[C@H]2OC)c(OC)c1,75.9,–,> 100,> 100,> 100,–,–,–,> 100 µM,–
N#CCC(=O)N/N=C1/C(=O)N(c2ccc(Cl)cc2)C(=O)C(=O)C1c1nc2ccccc2s1 (stereo not drawn),> 100,–,> 100,> 100,> 100,–,> 100 µM,–,> 100 µM,–
O=C(Nc1cccc(O)c1)C(=O)C1C(=O)NC(=S)NC1=O,> 100,> 100 µM,> 100,> 100,> 100,–,> 100 µM,–,> 100 µM,–
Cc1ccc(C)c(NC(=O)CC2Sc3ccccc3NC2=O)c1 (stereo not drawn),> 100,36 µM and 70 µM,> 100,> 100,> 100,–,28.9 µM and 61.1 µM,> 100 µM,22.7 µM and > 100 µM,GI50 (LXFL 529 NSCLC): 23 µM and 99 µM; GI50 (M19-MEL melanoma): 37 µM and > 100 µM; GI50 (MDA-N): 22.1 µM and > 65.6 µM; GI50 (XF 498 CNS): 13.7 µM and 29.1 µM
NC(CCCC(N)P(=O)(O)O)P(=O)(O)O (stereo not drawn),> 100,> 100 µM,–,> 100,> 100,> 100,> 100 µM,–,–,–
O=C(Nc1ccc(C(F)(F)F)cc1[N+](=O)[O-])C(=O)C1NC(=S)NC1=O (stereo not drawn),> 100,> 100 µM,> 100,> 100,> 100,> 100,> 100 µM,–,–,–
O=S(=O)(C1=CC(S(=O)(=O)c2ccccc2)CN(Cc2ccccc2)C1c1cccc2ccccc12)c1ccccc1 (stereo not drawn),> 69,–,> 69,–,> 69,> 69,> 69 µM,–,–,–
O=C(NC(=O)c1c(F)cccc1F)Nc1cccc(Oc2ncc(Cl)cn2)c1,> 100,> 100 µM,–,> 100,> 100,> 100,> 100 µM,> 22.7 µM,69 µM,–
CC(=O)C1C(c2ccccc2)C2(C)OC(=O)C(C#N)C12C (stereo not drawn),> 100,> 100 µM,> 100,> 100,> 100,–,> 100 µM,–,> 100 µM,–
CCCCCCCCCCCCCP(=O)(O)O,> 100,> 100 µM,> 100,> 100,> 100,> 100,> 100 µM,–,> 100 µM,–
COc1cc(NCC(C#N)C#N)ccc1N=Nc1ccc(Cl)cc1,48.2,39.7 µM,29.3,51.7,55.9,> 100,98.8 µM,–,–,–
N[C@H](C(=O)O)[C@@H]1CC(Cl)=NO1,258,> 1000 µM,> 1000,–,–,–,> 978 µM,> 1000 µM,250 µM,GI50 (MDA-N): 57.2 µM; TGI (P388 leukemia): 16 µM; TGI (SN12K1 renal): > 1000 µM
O=C1C=C(Nc2ccccc2C(=O)CC(=O)C(=O)Nc2cccc([N+](=O)[O-])c2)c2ccccc2C1=O,84.9,–,> 100,> 100,19.3,> 100,> 100 µM,–,53.8 µM,–
O=C(O)CSCCc1ccccc1,–,–,–,–,–,–,–,> 100 µM,–,–
CNC(=O)OCc1nc(SSC(C)(C)C)n(C)c1COC(=O)NC,4.15,10.8 µM,25.6,2.74,13.6,3.42,21.2 µM,6.59 µM,5.47 µM,TGI (P388 leukemia): > 100 µM; TGI (SN12K1 renal): 14.9 µM
CC(=O)Oc1c(C)c(-c2ccccc2)c(C)c(-c2ccccc2)c1C(=S)c1ccccc1,–,> 100 µM,> 100,> 100,> 100,> 100,> 100 µM,–,–,–
CNC(=O)OCc1c(COC(=O)NC)c(-c2ccc(-c3ccccc3)cc2)n(C)c1C,–,–,–,–,–,–,–,18.5 µM,–,–

Structure (SMILES),TGI (DMS 114 small cell lung) [µM],TGI (HOP-18 NSCLC),TGI (KM20L2 colon) [µM],TGI (LXFL 529 NSCLC) [µM],TGI (M19-MEL melanoma) [µM],TGI (RXF-631 renal) [µM],TGI (SNB-78 CNS),TGI (MDA-N),TGI (XF 498 CNS),other results
CC(=O)c1ccc(NC(=O)/C(CC(=O)c2sc(-c3cccnc3)nc2C)=N/NC(N)=O)cc1,> 100,–,> 100,> 100,> 100,–,> 100 µM,–,> 100 µM,–
CN(C)CCC(=O)N1C/C(=C\c2ccc(Cl)c(Cl)c2)C(=O)/C(=C/c2ccc(Cl)c(Cl)c2)C1,–,2.3 µM,1.59,0.637,1.13,–,1.66 µM,0.84 µM,2.32 µM,–
CCCCCCCCCCCCCCCCCCOC[C@H](COP(=O)(O)O[C@H]1[C@H](O)[C@@H](O)[C@H](O)C[C@H]1O)OC,–,–,–,–,–,–,–,> 100 µM and 25.4 µM,–,GI50 (MDA-N): 64.1 µM and 12 µM
CC1(O)C(C)(O)C2(C)O[Te]3(OC12C)OC1(C)C(C)(O)C(C)(O)C1(C)O3 (stereo not drawn),54.4,–,–,31.4,70.8,> 100,> 100 µM,–,> 100 µM,–
COc1ccc(C=O)cc1O[Si](C)(C)C(C)(C)C,> 100,> 100 µM,> 100,> 100,> 100,–,> 100 µM,–,–,–
CC(C)C(O)(C(C)C)C(C)C,–,–,–,–,–,–,–,> 100 µM,–,–
O=C(Nc1ccc(Cl)cc1)C1C(=O)C(=O)N(c2ccc(Cl)cc2)C1=O (stereo not drawn),> 100,> 100 µM,> 100,> 100,> 100,> 100,> 100 µM,–,> 100 µM,–
CC(C)(C)c1cc([N+](=O)[O-])cc([N+](=O)[O-])c1O,–,–,–,–,–,–,–,> 10 µM,–,–
CCCCCCCCCCCC(=O)OCCOCCOCCOCCOCCOC(=O)CCCCCCCCCCC,> 100,> 100 µM,> 100,> 100,> 100,> 100,> 100 µM,–,–,–
CN(C)Cc1cc(C(F)(F)F)ccc1C(O)(c1ccccc1)c1ccccc1,–,–,–,–,–,–,–,33.7 µM,–,–
O=C1N/C(=C\[N+](=O)[O-])c2ccccc21,> 100,> 100 µM,> 100,> 100,> 100,> 100,> 100 µM,–,–,–
CCCC1(CC(=O)O)OCCc2c1[nH]c1ccccc21 (stereo not drawn),> 100,> 100 µM,> 100,> 100,> 100,–,> 100 µM,–,> 100 µM,–
NC1=NN(c2ccccc2)C(=O)C1C(=O)CCC(=O)Nc1cccc(Cl)c1 (stereo not drawn),> 100,> 100 µM,> 100,> 100,> 100,–,> 100 µM,–,> 100 µM,–
Cc1ccc(S(=O)(=O)N=Nc2c(O)[nH]c3cc(O)c(C(=O)O)cc23)cc1,–,–,–,–,–,–,–,> 100 µM,–,–
COCCOC(=O)C1=C(O)c2ccccc2S(=O)(=O)N1C,–,–,–,–,–,–,–,> 100 µM,–,–
Oc1ccc2ccccc2c1N=Nc1cccc2ccccc12,–,–,–,–,–,–,–,> 100 µM,–,–
COc1ccc(C(C#N)NC23CC4CC(CC(C4)C2)C3)cc1 (stereo not drawn),–,–,–,–,–,–,–,> 100 µM,–,–
C[C@]12CC=CC(=O)[C@@]1(C)CCC(=O)C2,> 100,–,–,> 100,> 100,> 100,> 100 µM,–,> 100 µM,–
N#C/C(=C/c1cccc(Oc2ccccc2)c1)c1ccccc1,> 100,> 100 µM,–,> 100,> 100,–,> 100 µM,–,> 100 µM,–
Cc1cn(C2CC(OC(=O)c3ccc(Cl)cc3)C(COC(=O)c3ccc(Cl)cc3)O2)c(=O)[nH]c1=O (stereo not drawn),–,–,–,–,–,–,–,> 100 µM,–,–
Cc1ccc(S(=O)(=O)OC2CC=CC2)cc1,> 100,> 100 µM,> 100,> 100,> 100,–,> 100 µM,–,> 100 µM,–
